Results taken from patent publication US8759537B2, “3H-imidazo [4, 5-C] pyridine-6-carboxamides as anti-inflammatory agents” (Boehringer Ingelheim International GmbH, priority 2010, dated 2014).

biological target: mPGES-1 (Homo sapiens (Human), UniProt O14684); assay: A549 cell-based assay (PGE2 formation, IL-1β stimulated, 50% human serum); conditions: A549 cells, IL-1β 5 ng/ml, read-out: mPGES-1 inhibitory effect in the cell assay, IC50
Procedure: Although the enzymatic assay is a high throughput assay the disadvantage is that it uses a recombinant protein which is not in its natural environment. Accordingly a cellular assay was established in which a cell line of human origin (A549) expressing the mPGES-1 protein was used. In addition in order to mimic the situation in humans in which compounds can be bound to plasma proteins 50% human serum is added in the assay.
Cells were detached using Trypsin-EDTA. A549 cells were seeded in a 384-well collagene plate at a density of 7000 cells/well (50 μl) in F-12 medium containing 1% Penicillin-Streptomycin and 50% human serum. The cells were allowed to attach for 3-4 h. […] The total volume is 100 μl.
Concentrations of PGE2 in the cell free medium (10 μl) were measured using a commercially available HTRF kit from Cisbio (as described above). The PGE2 formation in the absence of test compound was taken as 100%.
IC50 values were derived from at 6-8 point titrations using conventional software.

Chain of mPGES-1 (O14684 whole entry): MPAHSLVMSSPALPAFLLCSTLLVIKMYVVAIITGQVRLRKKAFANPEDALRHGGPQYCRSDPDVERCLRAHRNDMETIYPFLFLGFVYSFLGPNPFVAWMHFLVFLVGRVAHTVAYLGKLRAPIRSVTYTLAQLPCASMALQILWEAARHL

IC50 [nM]	SMILES
4	CC(C)(C)C(=O)NCc1ccc(F)c(Nc2nc3cc(C(=O)Nc4ccc(Br)cc4)c(OCC(F)F)cc3n2C2CC2)c1F [Example 11]
8	CC(C)(C)C(=O)NCc1ccc(Cl)c(Nc2nc3cc(OC(F)F)c(C(=O)N[C@H]4CC[C@H](C(F)(F)F)CC4)cc3[nH]2)c1Cl [Example 78]
< 1	Cn1c(Nc2c(Cl)ccc(CNC(=O)C3(C(F)(F)F)CCC3)c2Cl)nc2cc(C(=O)NCC(F)(F)F)c(OCC(F)F)cc21 [Example 86]
221	Cn1c(Nc2c(Cl)ccc(CNC(=O)C(N)C(F)(F)F)c2Cl)nc2cc(C(=O)NCC(F)(F)F)c(OCC(F)F)cc21 (stereo not drawn) [Example 87]
9	Cn1c(Nc2c(Cl)ccc(CNC(=O)c3ccc(Cl)s3)c2Cl)nc2cc(C(=O)NCC(F)(F)F)c(OCC(F)F)cc21 [Example 92]
13	Cn1c(Nc2c(Cl)ccc(CNC(=O)C(C)(F)F)c2Cl)nc2cc(C(=O)NCC(F)(F)F)c(OCC(F)F)cc21 [Example 95]
15	Cn1c(Nc2c(Cl)ccc(CNC(=O)C3CC(F)(F)C3)c2Cl)nc2cc(C(=O)NCC(F)(F)F)c(OCC(F)F)cc21 [Example 102]
8	CC(C)C(=O)NCc1ccc(Cl)c(Nc2nc3cc(C(=O)NCC(F)(F)F)c(OCC(F)F)cc3n2C)c1Cl [Example 110]
85	Cn1c(Nc2c(Cl)ccc(CNC(=O)c3cc[nH]n3)c2Cl)nc2cc(C(=O)NCC(F)(F)F)c(OCC(F)F)cc21 [Example 127]
1	Cn1c(Nc2c(Cl)ccc(CNC(=O)CC(F)(F)F)c2Cl)nc2cc(C(=O)Nc3ccc(F)c(Cl)c3)c(OCC(F)F)cc21 [Example 131]
4	Cn1c(Nc2c(Cl)ccc(CNC(=O)C3CCCO3)c2Cl)nc2cc(C(=O)Nc3ccc(F)c(Cl)c3)c(OCC(F)F)cc21 (stereo not drawn) [Example 137]
27	Cn1c(Nc2c(Cl)ccc(CNC(=O)CO)c2Cl)nc2cc(C(=O)Nc3ccc(F)c(Cl)c3)c(OCC(F)F)cc21 [Example 139]
7	Cn1c(Nc2c(Cl)ccc(CNC(=O)C3(C#N)CC3)c2Cl)nc2cc(C(=O)Nc3ccc(F)c(Cl)c3)c(OCC(F)F)cc21 [Example 145]
2	Cn1c(Nc2c(Cl)ccc(CNC(=O)C3CC3)c2Cl)nc2cc(C(=O)Nc3ccc(F)c(Cl)c3)c(OCC(F)F)cc21 [Example 148]
< 1	Cn1c(Nc2c(Cl)ccc(CNC(=O)C(C)(N)C(F)(F)F)c2Cl)nc2cc(C(=O)Nc3ccc(F)c(Cl)c3)c(OCC(F)F)cc21 (stereo not drawn) [Example 152]
36	Cn1c(Nc2c(Cl)ccc(CNC(=O)CC#N)c2Cl)nc2cc(C(=O)Nc3ccc(F)c(Cl)c3)c(OCC(F)F)cc21 [Example 154]
2	Cn1c(Nc2c(Cl)ccc(CNC(=O)C(C)(C)CO)c2Cl)nc2cc(C(=O)Nc3ccc(F)c(Cl)c3)c(OCC(F)F)cc21 [Example 155]

More lines, now with the values behind:

SMILES	IC50 [nM]
Cn1c(Nc2c(Cl)ccc(CNC(=O)C(C)(C)C)c2Cl)nc2cc(C(=O)Nc3ccc(Br)cc3)c(F)cc21 [Example 7]	1
Cn1c(Nc2c(Cl)ccc(CNC(=O)C(C)(C)C)c2Cl)nc2cc(C(=O)Nc3cccc(C#N)c3)c(OCC(F)F)cc21 [Example 28]	1
CC(C)(C)C(=O)NCc1ccc(Cl)c(Nc2nc3c(F)c(OCC(F)(F)F)c(C(=O)N[C@H]4CC[C@H](C(F)(F)F)CC4)cc3[nH]2)c1Cl [Example 79]	1
Cn1c(Nc2c(Cl)ccc(CNC(=O)C(C)(C)F)c2Cl)nc2cc(C(=O)Nc3ccc(F)c(Cl)c3)c(OCC(F)F)cc21 [Example 84, N-(3-Chloro-4-fluoro-phenyl)-2-{2,6-dichloro-3-[(2-fluoro-2-methyl-propionylamino)-methyl]-phenylamino}-6-(2,2-difluoroethoxy)-1-methyl-1H-benzimidazole-5-carboxylic acid amide]	< 1
Cn1c(Nc2c(Cl)ccc(CNC(=O)CC3CC3)c2Cl)nc2cc(C(=O)NCC(F)(F)F)c(OCC(F)F)cc21 [Example 88]	68
Cn1c(Nc2c(Cl)ccc(CNC(=O)C3CCCO3)c2Cl)nc2cc(C(=O)NCC(F)(F)F)c(OCC(F)F)cc21 (stereo not drawn) [Example 90]	36
Cn1c(Nc2c(Cl)ccc(CNC(=O)C3CCC3)c2Cl)nc2cc(C(=O)NCC(F)(F)F)c(OCC(F)F)cc21 [Example 91]	10
Cn1c(Nc2c(Cl)ccc(CNC(=O)C3(O)CC3)c2Cl)nc2cc(C(=O)NCC(F)(F)F)c(OCC(F)F)cc21 [Example 93]	66
Cn1c(Nc2c(Cl)ccc(CNC(=O)C(O)C(F)(F)F)c2Cl)nc2cc(C(=O)NCC(F)(F)F)c(OCC(F)F)cc21 (stereo not drawn) [Example 96]	14
Cn1c(Nc2c(Cl)ccc(CNC(=O)C(C)(N)C(F)(F)F)c2Cl)nc2cc(C(=O)NCC(F)(F)F)c(OCC(F)F)cc21 (stereo not drawn) [Example 98]	2
Cn1c(Nc2c(Cl)ccc(CNC(=O)C3CC3)c2Cl)nc2cc(C(=O)NCC(F)(F)F)c(OCC(F)F)cc21 [Example 100]	52
COCC(=O)NCc1ccc(Cl)c(Nc2nc3cc(C(=O)NCC(F)(F)F)c(OCC(F)F)cc3n2C)c1Cl [Example 101]	11
Cn1c(Nc2c(Cl)ccc(CNC(=O)C3(C)CC3)c2Cl)nc2cc(C(=O)NCC(F)(F)F)c(OCC(F)F)cc21 [Example 103]	18
Cn1c(Nc2c(Cl)ccc(CNC(=O)c3ccno3)c2Cl)nc2cc(C(=O)NCC(F)(F)F)c(OCC(F)F)cc21 [Example 107]	106
Cn1c(Nc2c(Cl)ccc(CNC(=O)C(C)(C)O)c2Cl)nc2cc(C(=O)NCC(F)(F)F)c(OCC(F)F)cc21 [Example 108]	59
C[C@H](O)C(=O)NCc1ccc(Cl)c(Nc2nc3cc(C(=O)NCC(F)(F)F)c(OCC(F)F)cc3n2C)c1Cl [Example 109]	57
CCC(=O)NCc1ccc(Cl)c(Nc2nc3cc(C(=O)NCC(F)(F)F)c(OCC(F)F)cc3n2C)c1Cl [Example 111]	7
Cn1c(Nc2c(Cl)ccc(CNC(=O)CC#N)c2Cl)nc2cc(C(=O)NCC(F)(F)F)c(OCC(F)F)cc21 [Example 112]	19
Cn1c(Nc2c(Cl)ccc(CNC(=O)C3(C#N)CC3)c2Cl)nc2cc(C(=O)NCC(F)(F)F)c(OCC(F)F)cc21 [Example 113]	25
CC(=O)NCc1ccc(Cl)c(Nc2nc3cc(C(=O)NCC(F)(F)F)c(OCC(F)F)cc3n2C)c1Cl [Example 115]	300

SMILES	IC50 [nM]
Cn1c(Nc2c(Cl)ccc(CNC(=O)C(C)(C)CO)c2Cl)nc2cc(C(=O)NCC(F)(F)F)c(OCC(F)F)cc21 [Example 126]	72
Cn1c(Nc2c(Cl)ccc(CNC(=O)CC(F)(F)F)c2Cl)nc2cc(C(=O)NCC(F)(F)F)c(OCC(F)F)cc21 [Example 128]	26
COC(C)(C)C(=O)NCc1ccc(Cl)c(Nc2nc3cc(C(=O)NCC(F)(F)F)c(OCC(F)F)cc3n2C)c1Cl [Example 130]	3
CCCC(=O)NCc1ccc(Cl)c(Nc2nc3cc(C(=O)Nc4ccc(F)c(Cl)c4)c(OCC(F)F)cc3n2C)c1Cl [Example 132]	2
Cn1c(Nc2c(Cl)ccc(CNC(=O)C3(C)CC3)c2Cl)nc2cc(C(=O)Nc3ccc(F)c(Cl)c3)c(OCC(F)F)cc21 [Example 133]	1
Cn1c(Nc2c(Cl)ccc(CNC(=O)c3cc[nH]n3)c2Cl)nc2cc(C(=O)Nc3ccc(F)c(Cl)c3)c(OCC(F)F)cc21 [Example 134]	8
COC(C)(C)C(=O)NCc1ccc(Cl)c(Nc2nc3cc(C(=O)Nc4ccc(F)c(Cl)c4)c(OCC(F)F)cc3n2C)c1Cl [Example 135]	< 1
Cn1c(Nc2c(Cl)ccc(CNC(=O)c3cc(C(F)(F)F)n[nH]3)c2Cl)nc2cc(C(=O)Nc3ccc(F)c(Cl)c3)c(OCC(F)F)cc21 [Example 136]	17
Cc1nc(C)c(C(=O)NCc2ccc(Cl)c(Nc3nc4cc(C(=O)Nc5ccc(F)c(Cl)c5)c(OCC(F)F)cc4n3C)c2Cl)s1 [Example 138]	49
CC(C(=O)NCc1ccc(Cl)c(Nc2nc3cc(C(=O)Nc4ccc(F)c(Cl)c4)c(OCC(F)F)cc3n2C)c1Cl)C(F)(F)F (stereo not drawn) [Example 141]	< 1
Cn1cccc1C(=O)NCc1ccc(Cl)c(Nc2nc3cc(C(=O)Nc4ccc(F)c(Cl)c4)c(OCC(F)F)cc3n2C)c1Cl [Example 142]	2.5
Cn1c(Nc2c(Cl)ccc(CNC(=O)CC3CC3)c2Cl)nc2cc(C(=O)Nc3ccc(F)c(Cl)c3)c(OCC(F)F)cc21 [Example 144]	2
CCC(=O)NCc1ccc(Cl)c(Nc2nc3cc(C(=O)Nc4ccc(F)c(Cl)c4)c(OCC(F)F)cc3n2C)c1Cl [Example 146]	2
CC(O)C(=O)NCc1ccc(Cl)c(Nc2nc3cc(C(=O)Nc4ccc(F)c(Cl)c4)c(OCC(F)F)cc3n2C)c1Cl (stereo not drawn) [Example 147]	4
Cn1c(Nc2c(Cl)ccc(CNC(=O)C(C)(O)C(F)(F)F)c2Cl)nc2cc(C(=O)Nc3ccc(F)c(Cl)c3)c(OCC(F)F)cc21 (stereo not drawn) [Example 149]	1
Cn1c(Nc2c(Cl)ccc(CNC(=O)C3(C)COC3)c2Cl)nc2cc(C(=O)Nc3ccc(F)c(Cl)c3)c(OCC(F)F)cc21 [Example 150]	1
CC(C)C(=O)NCc1ccc(Cl)c(Nc2nc3cc(C(=O)Nc4ccc(F)c(Cl)c4)c(OCC(F)F)cc3n2C)c1Cl [Example 151]	1
Cn1c(Nc2c(Cl)ccc(CNC(=O)C3CC3(F)F)c2Cl)nc2cc(C(=O)Nc3ccc(F)c(Cl)c3)c(OCC(F)F)cc21 (stereo not drawn) [Example 153]	3
Cn1ccnc1C(=O)NCc1ccc(Cl)c(Nc2nc3cc(C(=O)Nc4ccc(F)c(Cl)c4)c(OCC(F)F)cc3n2C)c1Cl [Example 156]	10
Cn1c(Nc2c(Cl)ccc(CNC(=O)c3c(F)cccc3Cl)c2Cl)nc2cc(C(=O)Nc3ccc(F)c(Cl)c3)c(OCC(F)F)cc21 [Example 158]	< 1
